Experimental data: patent US20250152504A1, “INTRAUTERINE SYSTEMS COMPRISING ANTI-INFECTIVES FOR STEADY-STATE ACCUMULATION TO DISTAL EXTRAUTERINE TISSUE” (priority 2023, published 2025)
Converted amounts (≈) assume the structure as drawn.

Legend:
[1] = In vitro drug release from TPU matrix delivery system prototypes; assay type: physicochemical; conditions: for Predicted T50%: from best-fit release model
Procedure: Films were cut into disks with a 1-inch diameter die punch; disks were stacked and placed between two pieces of aluminum foil and compressed under a metal weight on a 120° C. dry bath. Thickness was monitored frequently until it measured 3.5 mm with digital calipers calibrated to 0.01 mm. Devices were cut from thick films using a custom rectangular 3.5 mm×13.3 mm die punch.
All release tests were performed in sink conditions in PBS supplemented with 2% w/v Cremophor® A25/Emulgin® B25. For the first 7-days of drug release testing, 1 mL samples were taken daily; following 7 days, samples were taken every 3-4 days. At all timepoints, bottles were drained and replaced with fresh media following sampling.
A qualification for selecting an optimal TPU for DPV delivery in this application is the time to achieve 50% cumulative release of drug. This is based on the standard use time of hormonal IUDs, which in practice are removed once about half of the initial load of drug is depleted from the device. Here, this standard was used as a benchmark to evaluate the sustained release properties of candidate delivery system designs. […] The fit of first-order release kinetics to the data was assessed. Equations 1 and 2 describe drug release from a system where dissolution is dependent on a concentration gradient.
Where k is the first order rate constant, Ct is the concentration of drug in solution at time t and C0 is the initial concentration of drug.
Where Q is the amount of drug release in time t and kh is the Higuchi release constant.
Based on the best-fit square-root of time relation, T50% was calculated for each TPU. […] Korsmeyer and Peppas provided a method for understanding drug release mechanisms of swelling and non-swelling polymeric systems, given by Equation 4: […]
Where Mt/M∝ is the fraction of drug released at time t, K is the rate constant, and n is the release exponent.

physchem = assay type: physicochemical; conditions: 37 °C, aqueous with cosolvent or surfactant or cyclodextrin, thermodynamic from solid
Description: FIGS. 6A-6C are graphs showing differential dapivirine release driven by polymer crystallinity and water penetration, in accordance with the present technology.

[2] = assay type: physicochemical
Description: Both polyether sheath reservoirs (R1 & R2) released DPV faster than polycarbonate sheath reservoirs (R3 & R4). […] Thus, with DPV loaded at 1 wt % which is below the saturation solubility, these reservoirs contain a nonconstant activity source. Pursuant to the behavior of reservoirs with a nonconstant activity source, these reservoirs released drug following first-order release kinetics. Despite this expectation, drug release from all four reservoir devices was described slightly better by a square-root of time dependence.

[3] = assay type: in vivo; conditions: baboon, about one month of intrauterine instillation
Description: Animals were monitored for signs of discomfort including decreased appetite, lethargy, and hunched posture. Tissue biopsies for histological analysis were fixed in 4% paraformaldehyde, dehydrated in alcohol, and embedded in paraffin. Cross sectional samples (5 μm) were taken and stained with hematoxylin and eosin (H&E) stain.
Vaginal tissue biopsies taken pre-insertion and 28-days post-insertion show characteristic features of healthy a vaginal epithelium, including a multilayered stratified squamous epithelium consisting of enucleated cells, a densely nucleated basal cell layer, and an inconspicuous lamina propria. Vaginal tissue biopsied 28-days post insertion has an intact stratified squamous epithelium that measures approximately 200 μm thick. Both pre-insertion and 28-days post-insertion cervical biopsies contain regions of a single columnar epithelium, while the underlying cervical stroma is composed of densely vascularized, fibromuscular tissue. The 28-day post-insertion cervical biopsy contains a thick stratus corneum of the exocervix; the epithelium overlays a prominent lymphoid aggregate, a feature of mucosa-associated lymphoid tissue (MALT) in the type I mucosa of the endocervix. Some cellular atypia is notable as a few epithelial cells display irregular nuclear membranes and perinuclear halos. […]

[4] = In vitro release of 1% dapivirine from ethylene-vinyl acetate polymers; assay type: physicochemical; conditions: 1% DPV in EVA, within 720 hours
Description: Ethylene-vinyl acetate polymers (EVA) were also investigated for the use in the intrauterine systems described herein. FIGS. 19A-19B are graphs showing release for dapirivine (DPV) in ethylene-vinyl acetate polymers (EVAs), in accordance with the present technology.

HIV-1 = conditions: cited from earlier work
[5] = cited from earlier work

In the case of `Cc1cc(C)c(Nc2ccnc(Nc3ccc(C#N)cc3)n2)c(C)c1` [DPV, dapivirine], the “DPV dose released per day” value ([1]; 1 wt % DPV, all four TPUs, within target range) is reported as 10 to 50 µg/day, the “Actual T50%” value ([1]; 1 wt % loading, TPU1 matrix) is reported as 12 days and the “First-Order: k” value ([1]; 1 wt % loading, TPU1 matrix) is reported as 0.002, h^−1. The “Higuchi: kH” value ([1]; 1 wt % loading, TPU1 matrix) was 0.029, %/h^1/2, the “Korsmeyer-Peppas Constant: n” value ([1]; 1 wt % loading, TPU1 matrix) was 0.525, and the “Predicted T50%” value ([1]; 1 wt % loading, TPU1 matrix) was 12 days. The “Actual T50%” value ([1]; 1 wt % loading, TPU2 matrix) was 12 days, the “First-Order: k” value ([1]; 1 wt % loading, TPU2 matrix) was 0.002, h^−1 and the “Higuchi: kH” value ([1]; 1 wt % loading, TPU2 matrix) was 0.027, %/h^1/2. For the same compound, the “Korsmeyer-Peppas Constant: n” value ([1]; 1 wt % loading, TPU2 matrix) was 0.549,, the “Predicted T50%” value ([1]; 1 wt % loading, TPU2 matrix) was 13.5 days and the “Actual T50%” value ([1]; 1 wt % loading, TPU3 matrix) was 7 days. The “First-Order: k” value ([1]; 1 wt % loading, TPU3 matrix) was 0.004, h^−1, the “Higuchi: kH” value ([1]; 1 wt % loading, TPU3 matrix) was 0.038, %/h^1/2 and the “Korsmeyer-Peppas Constant: n” value ([1]; 1 wt % loading, TPU3 matrix) was 0.662,. The “Predicted T50%” value ([1]; 1 wt % loading, TPU3 matrix) was 7 days, the “First-Order: k” value ([1]; 1 wt % loading, TPU4 matrix) was 0.0007, h^−1 and the “Higuchi: kH” value ([1]; 1 wt % loading, TPU4 matrix) was 0.017, %/h^1/2. For the same compound, the “Korsmeyer-Peppas Constant: n” value ([1]; 1 wt % loading, TPU4 matrix) was 0.614,, the “Predicted T50%” value ([1]; 1 wt % loading, TPU4 matrix) was 36 days and the “cumulative release of encapsulated drug” value ([1]; 1 wt %, TPU3 matrix, by 30 days / one month) was “approximately 95%”. For the same compound, the “First-Order: k” value ([1]; 16.6 wt % loading, TPU4 matrix) was 0.0005 h⁻¹, the “Higuchi: kH” value ([1]; 16.6 wt % loading, TPU4 matrix) was 0.014, %/h^1/2 and the “Predicted T50%” value ([1]; 16.6 wt % loading, TPU4 matrix) was 53.5 days. The “cumulative release of loaded drug” value ([1]; 16.6 wt %, TPU4 matrix, after 30 days) was “approximately 33.5%”, the release rate ([1]; 16.6 wt %, TPU4 matrix, final rate at 30 days, per each ⅓ segment of the device) was “approximately 62.56 μg/day” and the solubility (physchem) was 164 ± 9.4 µg/mL (≈ 497 µM). For the same compound, the “saturation solubility of DPV in a PY-PT43DE20 core” value [2] was 5.46±0.93 wt %, the “tolerability / histological findings” value [3] was “likely safe and well-tolerated in baboons” and the “cumulative release of loaded DPV” value [4] was “about 80%”. For the same compound, the “inhibition of provirus formation” value (HIV-1; at 1 nM (0.33 ng/mL)) was 99%, the “infection prevented (dissemination of HIV-1 by CD4+ dendritic cells)” value (HIV-1; at 10 nM (3.3 ng/mL)) was 90% and the “IC90 in cervicovaginal tissue” value (HIV-1; concentration with which tissue explants were treated) was 3.3 ng/mL (≈ 0.01 µM). The “lowest concentration inhibiting productive infection of ectocervical tissue” value (HIV-1; ex vivo viral inhibition model) was 0.1 nM, the Cmax ([5]; in vivo) was 0.355 ng/mL and the treatment-emergent adverse events ([5]; in vivo) was “no treatment-emergent adverse events were observed”. For the same compound, the “plasma concentration required to reduce viral load” value ([5]; oral DPV administration) was 100 to 200 ng/mL.
